These results are taken from ChEMBL document CHEMBL1138977, “Design and synthesis of novel 5,6-disubstituted uracil derivatives as potent inhibitors of thymidine phosphorylase” (Bioorg Med Chem Lett, 2006).

Structures are written as SMILES.

In this assay the target is Thymidine phosphorylase (Escherichia coli K-12, UniProt P07650). Put plainly: Inhibition of Escherichia coli TP.
Sequence of Thymidine phosphorylase (P07650 whole entry): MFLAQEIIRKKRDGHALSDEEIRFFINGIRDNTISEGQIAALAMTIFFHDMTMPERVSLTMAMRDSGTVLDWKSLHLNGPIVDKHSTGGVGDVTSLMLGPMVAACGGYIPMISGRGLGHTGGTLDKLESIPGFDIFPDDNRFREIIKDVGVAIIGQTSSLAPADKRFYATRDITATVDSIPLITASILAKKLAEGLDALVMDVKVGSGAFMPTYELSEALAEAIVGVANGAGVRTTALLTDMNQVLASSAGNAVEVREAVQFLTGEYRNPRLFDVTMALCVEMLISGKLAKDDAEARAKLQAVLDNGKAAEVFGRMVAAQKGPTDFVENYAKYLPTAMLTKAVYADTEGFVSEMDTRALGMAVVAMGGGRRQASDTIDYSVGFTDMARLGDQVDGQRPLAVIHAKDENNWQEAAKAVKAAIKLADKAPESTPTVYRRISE
With `Oc1nc(O)c(Br)c(N2CCC2)n1`, the midpoint of inhibition, the IC50, lay at 2 µM. In other words, the single-digit micromolar range.

Consider `OCCC1CCN(c2nc(O)nc(O)c2Br)CC1`, for which the IC50 stood at 6.1 µM. Compared with the last compound, the IC50 is about 3-fold higher.

As to `Oc1nc(O)c(Br)c(NCCNc2nc(O)nc(O)c2Br)n1`, 2.5 µM corresponded to half-maximal inhibition (IC50).

Turning to `Oc1nc(O)c(Cl)c(N2CCCCC2)n1`, the half-inhibitory concentration (IC50) amounted to 7.3 µM.

In turn, `Oc1nc(O)c(Cl)c(N2CCC2)n1` showed an IC50 of 14 µM.

Compound `Oc1nc(O)c(Cl)c(N2CCOCC2)n1` showed an IC50 of 10.4 µM.

`OCC1CCN(c2nc(O)nc(O)c2Br)CC1` returned an IC50 of 5.5 µM.

Compound `OCC1CCCN(c2nc(O)nc(O)c2Br)C1` (stereo unspecified) gave an IC50 of 6.5 µM.

Take `OCC1CCCCN1c1nc(O)nc(O)c1Br` (stereo unspecified): it took 6.5 µM to reach half-maximal inhibition (IC50).

Consider `OCC1CCCN(c2nc(O)nc(O)c2Cl)C1` (stereo unspecified), for which the half-maximal inhibitory concentration (IC50) worked out at 5.4 µM.

Take `Oc1nc(O)c(Br)c(N2CCOCC2)n1`: the IC50 was found to be 11.6 µM.

In the case of `Oc1nc(O)c(Br)c(NC2CC2)n1`, the IC50 turned out to be 3.5 µM. Compared with the last compound, the IC50 is about 3.3-fold lower.

`Oc1nc(O)c(Cl)c(NC2CC2)n1` showed an IC50 of 10.1 µM.

`OCC1CCCCN1c1nc(O)nc(O)c1Cl` (stereo unspecified) gave an IC50 of 4.3 µM.

As for `Oc1nc(O)c(Cl)c(N2CCN(c3nc(O)nc(O)c3Cl)CC2)n1`, it took 8.7 µM to reach half-maximal inhibition (IC50).

Consider `Nc1[nH]c(=O)[nH]c(=O)c1Cl`, for which inhibition was half-maximal at 4 µM (IC50).

`Oc1nc(O)c(Br)c(N2CCCCC2)n1` registered an IC50 of 9.1 µM.

For the compound `Oc1nc(O)c(Br)c(N2CCN(c3nc(O)nc(O)c3Br)CC2)n1`, half-maximal inhibition (IC50) was put at 2.3 µM. Against the preceding compound, the IC50 is about 4-fold lower.

Compound `Oc1nc(O)c(Cl)c(N2CCCC2)n1` showed an IC50 of 4.4 µM.

On to `NNc1nc(O)nc(O)c1Cl`, for which the IC50 was 9.1 µM.

The compound `OCCC1CCN(c2nc(O)nc(O)c2Cl)CC1` displayed an IC50 of 5.5 µM.

For orientation: IC50 means the concentration needed to halve the response being measured. Lower therefore signals greater potency in that assay.
